Where “and” joins values, the source holds several entries; their conditions need not be identical. Equal values may be shown once.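 Dose response: 5 concentrations. Exposure: 48 h. Format: 96-well plates. Endpoint: linear interpolation; highest concentration if not reached. GI50 marks 50% less growth. TGI denotes the concentration required for complete inhibition of growth.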
Experiments:
Experiment in all cases: DTP human tumour cell line panel, 48 h
COLO 205 colon = system: COLO 205 colon
HOP-62 NSCLC = system: HOP-62 NSCLC
NCI/ADR-RES ovarian = system: NCI/ADR-RES ovarian
OVCAR-4 ovarian = system: OVCAR-4 ovarian
PC-3 prostate = system: PC-3 prostate
SF-539 CNS = system: SF-539 CNS
SK-MEL-28 melanoma = system: SK-MEL-28 melanoma
SK-MEL-5 melanoma = system: SK-MEL-5 melanoma
UACC-62 melanoma = system: UACC-62 melanoma
UO-31 renal = system: UO-31 renal

Compound `Clc1ccc(N/N=C(\c2ccccc2)c2ccccn2)nc1` has a GI50 (COLO 205 colon) of 0.0308 µM, a TGI (COLO 205 colon) of 18.1 µM and a GI50 (HOP-62 NSCLC) of 0.31 µM. The TGI (HOP-62 NSCLC) was > 33.7 µM and 12.3 µM, the GI50 (NCI/ADR-RES ovarian) was 0.109 µM and the GI50 (OVCAR-4 ovarian) was 0.0201 µM. The TGI (OVCAR-4 ovarian) was > 100 µM and 56.2 µM, the GI50 (PC-3 prostate) was 0.112 µM and the TGI (PC-3 prostate) was > 67.8 µM and 28.9 µM. For the same compound, the GI50 (SF-539 CNS) was 0.297 µM, the TGI (SF-539 CNS) was 5.57 µM and 9.47 µM and the GI50 (SK-MEL-28 melanoma) was 0.335 µM. For the same compound, the TGI (SK-MEL-28 melanoma) was > 100 µM, the GI50 (SK-MEL-5 melanoma) was 0.32 µM and the GI50 (UACC-62 melanoma) was 0.288 µM. For the same compound, the TGI (UACC-62 melanoma) was > 36.6 µM and 15.5 µM, the GI50 (UO-31 renal) was 0.163 µM and the TGI (UO-31 renal) was 2.38 µM and 0.817 µM.
`CCCC(CCC)Oc1ccc(CCCC2=C(O)c3ccccc3C(=O)C2=O)cc1` was tested, and the GI50 (COLO 205 colon) was 6.7 µM, the TGI (COLO 205 colon) was 32.3 µM and the GI50 (HOP-62 NSCLC) was 7.6 µM. It also gave a TGI (HOP-62 NSCLC) of 22.3 µM, a GI50 (NCI/ADR-RES ovarian) of 5.36 µM and a TGI (NCI/ADR-RES ovarian) of 22.5 µM. It also gave a GI50 (OVCAR-4 ovarian) of 8.14 µM, a TGI (OVCAR-4 ovarian) of 20.5 µM and a GI50 (PC-3 prostate) of 3 µM. The TGI (PC-3 prostate) was 15.7 µM, the GI50 (SF-539 CNS) was 5.43 µM and the TGI (SF-539 CNS) was 18.7 µM. The GI50 (SK-MEL-28 melanoma) was 10.1 µM, the TGI (SK-MEL-28 melanoma) was 21.7 µM and the GI50 (SK-MEL-5 melanoma) was 3.14 µM. It also gave a TGI (SK-MEL-5 melanoma) of 13.6 µM, a GI50 (UACC-62 melanoma) of 3.16 µM and a TGI (UACC-62 melanoma) of 17 µM. It also gave a GI50 (UO-31 renal) of 2.69 µM and a TGI (UO-31 renal) of 13.8 µM.
For `CC(C)c1ccc(/C=N/N=C(N)N)cc1`, the GI50 (COLO 205 colon) was 1.72 µM, the TGI (COLO 205 colon) was 3.33 µM and the GI50 (HOP-62 NSCLC) was 4.61 µM. For the same compound, the TGI (HOP-62 NSCLC) was 17.9 µM, the GI50 (NCI/ADR-RES ovarian) was 6.33 µM and the TGI (NCI/ADR-RES ovarian) was 23.2 µM. The GI50 (OVCAR-4 ovarian) was 10.3 µM, the TGI (OVCAR-4 ovarian) was 23.2 µM and the GI50 (PC-3 prostate) was 4.25 µM. For the same compound, the TGI (PC-3 prostate) was 18.6 µM, the GI50 (SF-539 CNS) was 11.6 µM and the TGI (SF-539 CNS) was 25.3 µM. It also gave a GI50 (SK-MEL-28 melanoma) of 8.41 µM, a TGI (SK-MEL-28 melanoma) of 21 µM and a GI50 (SK-MEL-5 melanoma) of 2.54 µM. The TGI (SK-MEL-5 melanoma) was 8.16 µM, the GI50 (UACC-62 melanoma) was 7.73 µM and the TGI (UACC-62 melanoma) was 21.3 µM. It also gave a GI50 (UO-31 renal) of 10.3 µM and a TGI (UO-31 renal) of 22.3 µM.
For `O=C1Nc2ccc(CN3CCOC3=O)cc2/C1=C/c1cc(CN2CCOCC2)c[nH]1`, the GI50 (COLO 205 colon) was 38.6 µM, the TGI (COLO 205 colon) was > 100 µM and the GI50 (HOP-62 NSCLC) was 42.7 µM. For the same compound, the TGI (HOP-62 NSCLC) was > 100 µM, the GI50 (NCI/ADR-RES ovarian) was 34.6 µM and the TGI (NCI/ADR-RES ovarian) was > 100 µM. For the same compound, the GI50 (OVCAR-4 ovarian) was 26.6 µM, the TGI (OVCAR-4 ovarian) was > 100 µM and the GI50 (PC-3 prostate) was 36.9 µM. For the same compound, the TGI (PC-3 prostate) was > 100 µM, the GI50 (SF-539 CNS) was 53.9 µM and the TGI (SF-539 CNS) was > 100 µM. For the same compound, the GI50 (SK-MEL-28 melanoma) was 58 µM, the TGI (SK-MEL-28 melanoma) was > 100 µM and the GI50 (SK-MEL-5 melanoma) was 19.5 µM. For the same compound, the TGI (SK-MEL-5 melanoma) was 43.5 µM, the GI50 (UACC-62 melanoma) was 34.4 µM and the TGI (UACC-62 melanoma) was > 100 µM. For the same compound, the GI50 (UO-31 renal) was 21.5 µM and the TGI (UO-31 renal) was > 94.7 µM.
`CN(N=O)C(=O)Nc1ccc(C(=O)O)cc1` was tested, and the TGI (COLO 205 colon) was > 100 µM, the TGI (HOP-62 NSCLC) was > 100 µM and the TGI (NCI/ADR-RES ovarian) was > 100 µM. For the same compound, the TGI (OVCAR-4 ovarian) was > 100 µM, the TGI (PC-3 prostate) was > 100 µM and the TGI (SF-539 CNS) was > 100 µM. For the same compound, the TGI (SK-MEL-28 melanoma) was > 100 µM, the TGI (SK-MEL-5 melanoma) was > 100 µM and the TGI (UACC-62 melanoma) was > 100 µM. For the same compound, the TGI (UO-31 renal) was > 100 µM.
`CC(=O)[O][Hg][CH2]C1(C)COC(C)([CH2][Hg][O]C(C)=O)CO1` (stereo not drawn) was tested, and the GI50 (COLO 205 colon) was 1.47 µM, the TGI (COLO 205 colon) was 3.15 µM and the GI50 (HOP-62 NSCLC) was 40.5 µM. The TGI (HOP-62 NSCLC) was > 63.5 µM, the GI50 (NCI/ADR-RES ovarian) was 19.1 µM and the TGI (NCI/ADR-RES ovarian) was 46 µM. The GI50 (OVCAR-4 ovarian) was 26.4 µM, the TGI (OVCAR-4 ovarian) was 74.4 µM and the GI50 (PC-3 prostate) was 16.6 µM. For the same compound, the TGI (PC-3 prostate) was 37.5 µM, the GI50 (SF-539 CNS) was 17.7 µM and the TGI (SF-539 CNS) was 32.6 µM. It also gave a GI50 (SK-MEL-28 melanoma) of 1.64 µM, a TGI (SK-MEL-28 melanoma) of 3.06 µM and a GI50 (SK-MEL-5 melanoma) of 13.4 µM. For the same compound, the TGI (SK-MEL-5 melanoma) was 26.5 µM, the GI50 (UACC-62 melanoma) was 4.94 µM and the TGI (UACC-62 melanoma) was 9.26 µM. For the same compound, the GI50 (UO-31 renal) was 5.07 µM and the TGI (UO-31 renal) was 9.83 µM.
In the case of `COc1ccccc1Nc1nc2ccccc2c2occc12`, the GI50 (COLO 205 colon) is reported as 12.6 µM, the TGI (COLO 205 colon) is reported as > 50 µM and the GI50 (HOP-62 NSCLC) is reported as 24.5 µM. The TGI (HOP-62 NSCLC) was > 50 µM, the GI50 (NCI/ADR-RES ovarian) was 13.8 µM and the TGI (NCI/ADR-RES ovarian) was 32.4 µM. It also gave a GI50 (OVCAR-4 ovarian) of 4.13 µM, a TGI (OVCAR-4 ovarian) of 19.3 µM and a GI50 (PC-3 prostate) of 18.8 µM. The TGI (PC-3 prostate) was > 50 µM, the GI50 (SF-539 CNS) was 9.76 µM and the TGI (SF-539 CNS) was 21.5 µM. The GI50 (SK-MEL-28 melanoma) was 8.3 µM, the TGI (SK-MEL-28 melanoma) was 40.2 µM and the GI50 (SK-MEL-5 melanoma) was 12.2 µM. It also gave a TGI (SK-MEL-5 melanoma) of 27.7 µM, a GI50 (UACC-62 melanoma) of 10.1 µM and a TGI (UACC-62 melanoma) of 26.4 µM. It also gave a GI50 (UO-31 renal) of 14.7 µM and a TGI (UO-31 renal) of 24 µM.
In the case of `Oc1c(Cl)cc(CN(Cc2cc(Cl)c(O)c(Cl)c2)C2CCCCC2)cc1Cl`, the TGI (COLO 205 colon) is reported as > 100 µM, the TGI (HOP-62 NSCLC) is reported as > 100 µM and the TGI (NCI/ADR-RES ovarian) is reported as > 100 µM. For the same compound, the TGI (OVCAR-4 ovarian) was > 100 µM, the TGI (PC-3 prostate) was > 100 µM and the TGI (SF-539 CNS) was > 100 µM. The TGI (SK-MEL-28 melanoma) was > 100 µM, the TGI (SK-MEL-5 melanoma) was > 100 µM and the TGI (UACC-62 melanoma) was > 100 µM. The TGI (UO-31 renal) was > 100 µM.
For `CCOC(=O)Nc1ccc(C(=O)/C=C/c2ccccc2)cc1`, the GI50 (COLO 205 colon) was 20.3 µM, the TGI (COLO 205 colon) was 47.6 µM and the GI50 (HOP-62 NSCLC) was 20.4 µM. For the same compound, the TGI (HOP-62 NSCLC) was 47.3 µM, the GI50 (NCI/ADR-RES ovarian) was 24.2 µM and the TGI (NCI/ADR-RES ovarian) was 65.8 µM. For the same compound, the GI50 (OVCAR-4 ovarian) was 43.8 µM, the TGI (OVCAR-4 ovarian) was > 100 µM and the GI50 (PC-3 prostate) was 30.9 µM. The TGI (PC-3 prostate) was > 100 µM, the GI50 (SF-539 CNS) was 20.2 µM and the TGI (SF-539 CNS) was 46.3 µM. For the same compound, the GI50 (SK-MEL-28 melanoma) was 59 µM, the TGI (SK-MEL-28 melanoma) was > 100 µM and the GI50 (SK-MEL-5 melanoma) was 27.1 µM. The TGI (SK-MEL-5 melanoma) was > 100 µM, the GI50 (UACC-62 melanoma) was 20.1 µM and the TGI (UACC-62 melanoma) was > 100 µM. The GI50 (UO-31 renal) was 26.9 µM and the TGI (UO-31 renal) was > 100 µM.
`Cc1cccc2c(N=Nc3ccccc3[N+](=O)[O-])c(O)[nH]c12` was tested, and the TGI (COLO 205 colon) was > 63.5 µM, the TGI (HOP-62 NSCLC) was 21.8 µM and the TGI (NCI/ADR-RES ovarian) was > 31.4 µM. The TGI (OVCAR-4 ovarian) was 16.9 µM, the TGI (PC-3 prostate) was 38.4 µM and the TGI (SF-539 CNS) was 8.96 µM. The TGI (SK-MEL-28 melanoma) was > 100 µM, the TGI (SK-MEL-5 melanoma) was > 81.9 µM and the TGI (UACC-62 melanoma) was 73.7 µM. The TGI (UO-31 renal) was 22.5 µM.
`C[n+]1cc2cc3c(cc2c2ccccc21)OCO3` gave a GI50 (COLO 205 colon) of 4.48 µM, a TGI (COLO 205 colon) of 24 µM and a GI50 (HOP-62 NSCLC) of 6.62 µM. The TGI (HOP-62 NSCLC) was 43.2 µM, the GI50 (NCI/ADR-RES ovarian) was > 100 µM and the TGI (NCI/ADR-RES ovarian) was > 100 µM. The GI50 (OVCAR-4 ovarian) was 3.78 µM, the TGI (OVCAR-4 ovarian) was 36 µM and the GI50 (PC-3 prostate) was 3.12 µM. It also gave a TGI (PC-3 prostate) of 26.4 µM, a GI50 (SF-539 CNS) of 4.83 µM and a TGI (SF-539 CNS) of 23.8 µM. For the same compound, the GI50 (SK-MEL-28 melanoma) was 3.49 µM, the TGI (SK-MEL-28 melanoma) was 14.3 µM and the GI50 (SK-MEL-5 melanoma) was 2.71 µM. For the same compound, the TGI (SK-MEL-5 melanoma) was 14.3 µM, the GI50 (UACC-62 melanoma) was 3.97 µM and the TGI (UACC-62 melanoma) was 16.4 µM. For the same compound, the GI50 (UO-31 renal) was 27.8 µM and the TGI (UO-31 renal) was > 100 µM.

— PubChem BioAssay (NCI)
